This is an account of results in patent US20250230140A1 (Viva Star Biosciences (Suzhou) Co., Ltd., priority 2021, published 2025).

Usually IC50 stands for the concentration needed to halve the response being measured.

The experiment has as its target T1, LPA1 (Homo sapiens, UniProt Q92633).
T1 construct: ProLink (β-galactosidase enzyme-donor fragment); host or cells: CHO-K1 (PathHunter EDG2 β-Arrestin cell line)
The experiment in a line: LPA1 calcium flux assay (LPA1 functional antagonist assay). Type of experiment: cell-based. The settings on record: PathHunter CHO-K1 EDG2 β-Arrestin cells, calcium indicator dye, stimulated with EC80 concentration of LPA, FLIPR. Here is the method:
The effectiveness of compounds of the present invention as LPA1 inhibitors can be determined in an LPA1 functional antagonist assay as follows.
PathHunter® CHO-K1 EDG2 β-Arrestin Cell Line (Eurofins DiscoverX Corporation, Cat #93-0644C2) were plated overnight (11,500 cells/well) in poly-D-lysine coated 384-well microplates (Corning, Cat #356697) in AssayComplete™ Cell Plating 35 Reagent (Eurofins DiscoverX Corporation, Cat #93-0563R35). Following overnight culture, cells were loaded with calcium indicator dye from the HitHunter Calcium No WashPLUS Assay kit (Eurofins DiscoverX Corporation, Cat #93-0091) for 45 minutes at 37° C. Test compounds solubilized in DMSO (Sigma, Cat #276855) on 384-well polypropylene microplates (Greiner bio-one, Cat #781280) were then diluted to intermediate concentration with assay buffer [1×HBSS calcium/magnesium (Corning, Cat #21-023-CM) and 20 mM HEPES (Corning, Cat #25-060-Cl)] before addition to cells by Agilent Velocity 11 with a final concentration of 0.4% DMSO. After compound addition, assay plates were equilibrated to room temperature for 30 minutes. Cells were then stimulated by addition of EC80 concentration of LPA (Cat #, 10010093) in assay buffer containing [1×HBSS calcium/magnesium (Corning, Cat #21-023-CM), 20 mM HEPES (Corning, Cat #25-060-Cl), and 0.1% BSA (Sigma, Cat #A8806)] using Molecular Devices FLIPR Tetra PLUS®. IC50 values were determined by Chemical and Biological Information System from ChemInnovation Software, Inc.
The compounds of this invention were tested for their activity to inhibit LPA1 as determined in an LPA1 functional antagonist assay as described herein.

Bounds are passed on as bounds.

T1 sequence (Q92633 whole entry, the tested form may be a part): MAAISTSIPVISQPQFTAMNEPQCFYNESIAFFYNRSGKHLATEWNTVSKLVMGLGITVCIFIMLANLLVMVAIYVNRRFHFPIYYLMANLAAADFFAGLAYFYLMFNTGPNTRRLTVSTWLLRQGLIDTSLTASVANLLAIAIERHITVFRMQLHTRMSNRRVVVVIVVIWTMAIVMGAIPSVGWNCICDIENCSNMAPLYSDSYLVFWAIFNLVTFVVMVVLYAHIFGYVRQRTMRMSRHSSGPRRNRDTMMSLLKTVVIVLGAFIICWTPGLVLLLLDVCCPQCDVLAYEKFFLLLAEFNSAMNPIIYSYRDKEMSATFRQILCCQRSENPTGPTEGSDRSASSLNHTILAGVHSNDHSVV

Regarding `CCc1nc(-c2nnn(C)c2COc2nccc(C3CCC3)n2)ccc1[C@H]1CCC[C@@H](CC(=O)O)O1` (relative stereo) [Example 21, 2-(rel-(2S,6R)-6-(6-(5-(((4-cyclobutylpyrimidin-2-yl)oxy)methyl)-1-methyl-1H-1,2,3-triazol-4-yl)-2-ethylpyridin-3-yl)tetrahydro-2H-pyran-2-yl)acetic acid], the IC50 was under 0.1 µM.
In the case of `CCCc1ccc(=O)n(Cc2c(-c3ccc(N4CC[C@@H](C(CC)C(=O)O)C4)c(CC)n3)nnn2C)c1` (single isomer, unassigned) [Example 17, (S) or (R)-2-((S)-1-(2-ethyl-6-(1-methyl-5-((2-oxo-5-propylpyridin-1(2H)-yl)methyl)-1H-1,2,3-triazol-4-yl)pyridin-3-yl)pyrrolidin-3-yl)butanoic acid] it was 0.5 to 5 µM; in that of `CCCc1ccc(=O)n(Cc2c(-c3ccc(N4CC[C@@H](C(CC)C(=O)O)C4)c(CC)n3)nnn2C)c1` (single isomer, unassigned) [Example 18, (R) or (S)-2-((S)-1-(2-ethyl-6-(1-methyl-5-((2-oxo-5-propylpyridin-1(2H)-yl)methyl)-1H-1,2,3-triazol-4-yl)pyridin-3-yl)pyrrolidin-3-yl)butanoic acid], 5 to 10000 µM.
With `CCCN(C)C(=O)OCc1c(-c2ccc(N3CC[C@@H](C(CC)C(=O)O)C3)c(CC)n2)nnn1C` (single isomer, unassigned) [Example 19, (S) or (R)-2-((S)-1-(2-ethyl-6-(1-methyl-5-(((methyl(propyl)carbamoyl)oxy)methyl)-1H-1,2,3-triazol-4-yl)pyridin-3-yl)pyrrolidin-3-yl)butanoic acid] the figure was 5 to 10000 µM.
With `CCCN(C)C(=O)OCc1c(-c2ccc(N3CC[C@@H](C(CC)C(=O)O)C3)c(CC)n2)nnn1C` (single isomer, unassigned) [Example 20, (R) or (S)-2-((S)-1-(2-ethyl-6-(1-methyl-5-(((methyl(propyl)carbamoyl)oxy)methyl)-1H-1,2,3-triazol-4-yl)pyridin-3-yl)pyrrolidin-3-yl)butanoic acid] the figure was 0.5 to 5 µM.
For `CCc1nc(-c2nnn(C)c2COc2nccc(C3CCC3)n2)ccc1[C@@H]1CCC[C@@H](CC(=O)O)O1` (single isomer, unassigned) [Example 22, 2-((2S,6S) or (2R,6R)-6-(6-(5-(((4-cyclobutylpyrimidin-2-yl)oxy)methyl)-1-methyl-1H-1,2,3-triazol-4-yl)-2-ethylpyridin-3-yl)tetrahydro-2H-pyran-2-yl)acetic acid], the IC50 was under 0.1 µM.
In the case of `CCc1nc(-c2nnn(C)c2COc2nccc(C3CCC3)n2)ccc1[C@H]1CCC[C@H](CC(=O)O)O1` (single isomer, unassigned) [Example 23, 2-((2R,6R) or (2S,6S)-6-(6-(5-(((4-cyclobutylpyrimidin-2-yl)oxy)methyl)-1-methyl-1H-1,2,3-triazol-4-yl)-2-ethylpyridin-3-yl)tetrahydro-2H-pyran-2-yl)acetic acid] it was 0.1 to 0.5 µM.
In the case of `CCCc1ccc(=O)n(Cc2c(-c3ccc([C@@H]4CCC[C@@H](CC(=O)O)O4)c(CC)n3)nnn2C)c1` (single isomer, unassigned) [Example 24, 2-((2S,6S) or (2R,6R)-6-(2-ethyl-6-(1-methyl-5-((2-oxo-5-propylpyridin-1(2H)-yl)methyl)-1H-1,2,3-triazol-4-yl)pyridin-3-yl)tetrahydro-2H-pyran-2-yl)acetic acid] it was 0.5 to 5 µM.
In the case of `CCCN(C)C(=O)OCc1c(-c2ccc([C@@H]3CCC[C@@H](CC(=O)O)O3)c(CC)n2)nnn1C` (single isomer, unassigned) [Example 25, 2-((2S,6S) or (2R,6R)-6-(2-ethyl-6-(1-methyl-5-(((methyl(propyl)carbamoyl)oxy)methyl)-1H-1,2,3-triazol-4-yl)pyridin-3-yl)tetrahydro-2H-pyran-2-yl)acetic acid] it was 0.5 to 5 µM; in that of `CCc1nc(-c2nnn(C)c2COc2nccc(C3CCC3)n2)ccc1C1CCOC(CC(=O)O)C1` (single isomer, unassigned) [Example 34, 2-(4-(6-(5-(((4-cyclobutylpyrimidin-2-yl)oxy)methyl)-1-methyl-1H-1,2,3-triazol-4-yl)-2-ethylpyridin-3-yl)tetrahydro-2H-223,423-pyran-2-yl)acetic acid], under 0.1 µM.
On to `CCc1nc(-c2nnn(C)c2COc2nccc(C3CCC3)n2)ccc1C1CCOC(CC(=O)O)C1` (single isomer, unassigned) [Example 35, 2-(4-(6-(5-(((4-cyclobutylpyrimidin-2-yl)oxy)methyl)-1-methyl-1H-1,2,3-triazol-4-yl)-2-ethylpyridin-3-yl)tetrahydro-2H-223,423-pyran-2-yl)acetic acid], for which the IC50 was under 0.1 µM.
With `CCc1nc(-c2nnn(C)c2COc2nccc(C3CCC3)n2)ccc1C1CCOC(CC(=O)O)C1` (single isomer, unassigned) [Example 36, 2-(4-(6-(5-(((4-cyclobutylpyrimidin-2-yl)oxy)methyl)-1-methyl-1H-1,2,3-triazol-4-yl)-2-ethylpyridin-3-yl)tetrahydro-2H-223,423-pyran-2-yl)acetic acid] the figure was under 0.1 µM.
With `CCc1nc(-c2nnn(C)c2COc2nccc(C3CCC3)n2)ccc1C1CCOC(CC(=O)O)C1` (single isomer, unassigned) [Example 37, 2-(4-(6-(5-(((4-cyclobutylpyrimidin-2-yl)oxy)methyl)-1-methyl-1H-1,2,3-triazol-4-yl)-2-ethylpyridin-3-yl)tetrahydro-2H-2λ^3,4λ^3-pyran-2-yl)acetic acid] the figure was under 0.1 µM; with `CCCc1ccc(=O)n(Cc2c(-c3ccc(C4CN(CC(=O)O)CC(F)(F)C4)c(C)n3)nnn2C)c1` (single isomer, unassigned) [Example 40, (R) or (S)-2-(3,3-difluoro-5-(2-methyl-6-(1-methyl-5-((2-oxo-5-propylpyridin-1(2H)-yl)methyl)-1H-1,2,3-triazol-4-yl)pyridin-3-yl)piperidin-1-yl)acetic acid], 5 to 10000 µM; with `CCCc1ccc(=O)n(Cc2c(-c3ccc(C4CN(CC(=O)O)CC(F)(F)C4)c(C)n3)nnn2C)c1` (single isomer, unassigned) [Example 41, (S) or (R)-2-(3,3-difluoro-5-(2-methyl-6-(1-methyl-5-((2-oxo-5-propylpyridin-1(2H)-yl)methyl)-1H-1,2,3-triazol-4-yl)pyridin-3-yl)piperidin-1-yl)acetic acid], 0.1 to 0.5 µM.
With `CCc1nc(-c2nnn(C)c2COc2nccc(C3CCC3)n2)ccc1N1CC[C@@H](CC(=O)O)C1` [Example 1, 2-[(3S)-1-[6-(5-{[(4-cyclobutylpyrimidin-2-yl)oxy]methyl}-1-methyl-1H-1,2,3-triazol-4-yl)-2-ethylpyridin-3-yl]pyrrolidin-3-yl]acetic acid] the figure was under 0.1 µM; with `CCCc1ccc(=O)n(Cc2c(-c3ccc(N4CCC(CC(=O)O)C4)c(C)n3)nnn2C)c1` (centres unmarked) [Example 2, 2-(1-(2-methyl-6-(1-methyl-5-((2-oxo-5-propylpyridin-1(2H)-yl)methyl)-1H-1,2,3-triazol-4-yl)pyridin-3-yl)pyrrolidin-3-yl)acetic acid], 0.5 to 5 µM.
